This is an account of results in patent publication US9770481B2, “Inhibitors of NOX1” (UNIVERSITY OF PITTSBURGH—OF THE COMMONWEALTH SYSTEM OF …, priority 2011, dated 2017).

One assay deals with T1, Nox2 (Homo sapiens, UniProt P04839).
T1 construct: expressed in transfected cells; host or cells: COS22 / COS cells, transient transfection; cell lysates
T1 sequence (P04839 2-570 limits assumed): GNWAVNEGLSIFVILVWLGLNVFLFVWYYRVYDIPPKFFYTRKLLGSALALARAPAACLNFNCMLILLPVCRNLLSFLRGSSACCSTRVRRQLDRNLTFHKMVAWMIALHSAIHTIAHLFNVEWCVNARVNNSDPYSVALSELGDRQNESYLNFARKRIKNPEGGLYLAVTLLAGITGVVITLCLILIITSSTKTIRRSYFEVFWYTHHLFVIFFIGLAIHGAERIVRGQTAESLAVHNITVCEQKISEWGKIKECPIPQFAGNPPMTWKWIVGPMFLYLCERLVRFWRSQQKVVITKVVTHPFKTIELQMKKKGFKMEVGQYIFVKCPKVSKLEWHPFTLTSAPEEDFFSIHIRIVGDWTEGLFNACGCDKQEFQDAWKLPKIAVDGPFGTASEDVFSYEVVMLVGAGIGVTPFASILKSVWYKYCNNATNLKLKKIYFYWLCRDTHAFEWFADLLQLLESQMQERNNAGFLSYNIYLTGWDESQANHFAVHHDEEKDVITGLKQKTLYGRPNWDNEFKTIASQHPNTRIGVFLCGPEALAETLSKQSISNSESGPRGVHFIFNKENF
T1 sequence (P13498 1-195 partner): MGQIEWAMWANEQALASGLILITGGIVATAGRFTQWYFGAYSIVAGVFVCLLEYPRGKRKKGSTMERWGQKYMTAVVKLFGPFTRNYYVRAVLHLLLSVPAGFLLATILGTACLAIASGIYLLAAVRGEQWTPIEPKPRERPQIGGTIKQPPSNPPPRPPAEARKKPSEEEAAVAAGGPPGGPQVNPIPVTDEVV
Nature of the assay: O2- production by lysates of COS cells transfected with Nox2 oxidase, LiDS-stimulated (cytochrome c). It is filed as cell-based. The following applies: 0.1 nM to 10,000 nM. How it is done: (§1) To test whether the inhibitory effect of NoxA1ds is specific to Nox1, the effect of NoxA1ds was tested on cells expressing Nox2, Nox4, and Nox5 as well as on purified xanthine oxidase enzyme. To test the effect on Nox2, production of O2^− was measured by the reduction of cytochrome c by cell lysates from COS cells transiently transfected with the Nox2 oxidase, stimulated with LiDS, and the treated with increasing concentrations of NoxA1ds (from 0.1 nM to 10,000 nM). Similarly, production of H2O2 was measured by Amplex red fluorescence by COS cells transiently transfected with the Nox4 oxidase and treated with increasing concentrations of NoxA1ds (from 100 nM to 10,000 nM). Production of O2^− was also measured by the reduction of cytochrome c by cell lysates from HEK293 cells stably transfected with the Nox5 oxidase stimulated with Ca^2+, and treated with increasing concentrations of NoxA1ds (from 0.1 nM to 10,000 nM). Finally, production of O2^− was measured by Electron Paramagnetic Resonance from pure xanthine oxidase enzyme preparations, stimulated with hypoxanthine and treated with increasing concentrations of NoxA1ds (from 0.1 nM to 10,000 nM).

The target in the next assay is T2, Nox5 (Homo sapiens, UniProt Q96PH1).
T2 construct: expressed in transfected cells; cell lysates
T2 sequence (Q96PH1 1-765): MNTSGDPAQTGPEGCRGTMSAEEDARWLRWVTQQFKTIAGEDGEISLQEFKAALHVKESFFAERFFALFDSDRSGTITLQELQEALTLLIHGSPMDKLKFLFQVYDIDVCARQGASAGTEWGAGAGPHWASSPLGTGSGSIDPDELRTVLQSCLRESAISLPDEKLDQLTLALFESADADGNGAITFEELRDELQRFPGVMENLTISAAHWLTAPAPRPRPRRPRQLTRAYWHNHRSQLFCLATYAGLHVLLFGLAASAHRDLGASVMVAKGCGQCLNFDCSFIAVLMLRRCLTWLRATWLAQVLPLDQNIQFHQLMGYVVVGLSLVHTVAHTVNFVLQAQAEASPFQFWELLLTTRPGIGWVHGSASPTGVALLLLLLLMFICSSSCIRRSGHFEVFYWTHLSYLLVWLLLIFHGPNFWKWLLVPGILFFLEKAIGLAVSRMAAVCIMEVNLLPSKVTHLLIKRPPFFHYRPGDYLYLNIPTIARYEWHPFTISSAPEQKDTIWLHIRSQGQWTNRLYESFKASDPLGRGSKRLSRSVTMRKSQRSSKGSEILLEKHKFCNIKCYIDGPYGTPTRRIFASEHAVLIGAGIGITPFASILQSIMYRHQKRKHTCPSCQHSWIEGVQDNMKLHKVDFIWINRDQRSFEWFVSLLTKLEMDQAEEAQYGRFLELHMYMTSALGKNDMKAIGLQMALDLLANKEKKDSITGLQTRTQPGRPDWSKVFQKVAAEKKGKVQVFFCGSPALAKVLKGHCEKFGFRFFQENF
Nature of the assay: O2- production by lysates of HEK293 cells stably transfected with Nox5 oxidase, Ca2+-stimulated (cytochrome c). The class given is cell-based. The following applies: 0.1 nM to 10,000 nM. The protocol:
as §1

Assay [1] relates to rat aortic smooth muscle cells. Nature of the assay: Calponin and osteopontin expression in stretched rat aortic smooth muscle cells (Western blot). The class given is cell-based. The note with it: 10 μM added every four hours; cyclic stretch 24 hrs. The protocol:
The effect of Nox1 inhibition on the expression of certain protein markers of rat aortic smooth muscle cell contractile vs. synthetic phenotypes was evaluated. Cells were subjected to 24 hrs of cyclic stretch (10%, 1 Hz) with 10 μM NoxA1ds or SCRMB control being added every four hours. […] Calponin expression during stretch was rescued by the addition of 10 μM NoxA1ds, yet was unaffected by the addition of 10 μM scrambled peptide (SCRMB). A representative Western blot is shown below the graph (FIG. 9B). Osteopontin (OPN, a marker of the […] phenotype), expression increased after 24 hrs of stretch.
A general note: A western blot detects proteins with antibodies after separation by electrophoresis.

Assay [2] deals with HPAEC constitutively expressing Nox1. The assay is described as follows: Angiotensin II-induced O2- production by HPAEC (cytochrome c). The class given is cell-based, human. The following applies: 100 nM angiotensin II, 10 μM peptide, 1 hr. How it is done:
FIG. 10. O2^− Production by human pulmonary artery endothelial cells (“HPAEC”) which were either (i) untreated; (ii) treated with 100 nM angiotensin II; (iii) treated with 100 nM angiotensin II and 10 μM NoxA1ds; or (iv) treated with 100 nM angiotensin II and 10 μM SCRMB peptide. Results represent mean±SEM, n=5-9, 2-3 separate experiments.
In further studies, HPAEC constitutively expressing Nox1 were treated with vehicle or Angiotensin II (AngII, one mediator of hypertension) alone or in combination with NoxA1ds, or SCRMB for 1 hr. O2^− production was then measured via reduction of cytochrome c.

On to “H-EPVDALGKAKV-NH2 [NoxA1ds, [NH3^+]-EPVDALGKAKV-[CONH2]]”, for which, on Nox2, the “Inhibitory effect on Nox2 O2- production” value is “did not exhibit a significant inhibitory effect”. In addition, at Nox5, the “Inhibitory effect on Nox5 O2- production” value is given as “did not exhibit a significant inhibitory effect”. Further, in assay [1], the “Calponin expression during stretch” value is “rescued” and the “Osteopontin (OPN) expression during stretch” value was “returned to levels observed in the absence of stretch”. In addition, the “AngII-induced O2- production” value in assay [2] was “completely inhibited”.
